Laboratory results: ChEMBL document CHEMBL4270607, “Identification of crizotinib derivatives as potent SHIP2 inhibitors for the treatment of Alzheimer's disease” (Eur J Med Chem, 2018)

Legend:
[1] = Metabolic stability in dog liver microsomes assessed as parent compound remaining at 1 uM preincubated for 5 mins followed by NADPH addition measured after 30 mins by LC-MS/MS analysis; format: ADME, Canis lupus familiaris, microsome; conditions: read-out: Stability
CYP2D6 = CYP2D6 (Homo sapiens, UniProt P10635); test: Inhibition of recombinant human CYP2D6 assessed as remaining enzyme activity at 10 uM preincubated for 5 mins followed by NADPH addition measured after 20 mins by fluorescence assay relative to control; format: ADME; conditions: read-out: Activity
CYP1A2 = biological target: T1, CYP1A2 (Homo sapiens, UniProt P05177); test: Inhibition of recombinant human CYP1A2 assessed as remaining enzyme activity at 10 uM preincubated for 5 mins followed by NADPH addition measured after 20 mins by fluorescence assay relative to control; format: ADME; conditions: read-out: Activity
T1 sequence (P05177 whole entry): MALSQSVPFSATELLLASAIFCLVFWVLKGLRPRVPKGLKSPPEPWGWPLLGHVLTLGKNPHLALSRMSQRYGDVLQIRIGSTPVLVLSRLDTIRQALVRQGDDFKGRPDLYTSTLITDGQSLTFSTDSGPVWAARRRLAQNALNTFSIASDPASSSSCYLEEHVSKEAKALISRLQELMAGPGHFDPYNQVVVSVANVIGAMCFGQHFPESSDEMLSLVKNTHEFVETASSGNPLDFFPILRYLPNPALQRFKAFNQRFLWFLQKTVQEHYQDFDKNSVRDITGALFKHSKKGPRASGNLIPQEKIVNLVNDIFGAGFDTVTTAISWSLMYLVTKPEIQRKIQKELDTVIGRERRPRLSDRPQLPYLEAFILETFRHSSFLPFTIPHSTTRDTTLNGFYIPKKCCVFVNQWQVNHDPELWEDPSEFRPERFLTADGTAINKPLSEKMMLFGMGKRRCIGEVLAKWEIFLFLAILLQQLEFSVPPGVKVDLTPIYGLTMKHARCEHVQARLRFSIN

CYP2C9 = CYP2C9 (Homo sapiens, UniProt P11712); test: Inhibition of recombinant human CYP2C9 assessed as remaining enzyme activity at 10 uM preincubated for 5 mins followed by NADPH addition measured after 20 mins by fluorescence assay relative to control; format: ADME; conditions: read-out: Activity
[2] = biological target: T2, Phosphatidylinositol 3,4,5-trisphosphate 5-phosphatase 2 (Homo sapiens) (UniProt O15357); test: Inhibition of SHIP2 (unknown origin) assessed as remaining enzyme activity at 30 uM using PtdIns(3,4,5)P3 as substrate preincubated for 20 mins followed by substrate addition measured for 50 mins by malachite green staining based assay relative to control
T2 sequence (whole entry): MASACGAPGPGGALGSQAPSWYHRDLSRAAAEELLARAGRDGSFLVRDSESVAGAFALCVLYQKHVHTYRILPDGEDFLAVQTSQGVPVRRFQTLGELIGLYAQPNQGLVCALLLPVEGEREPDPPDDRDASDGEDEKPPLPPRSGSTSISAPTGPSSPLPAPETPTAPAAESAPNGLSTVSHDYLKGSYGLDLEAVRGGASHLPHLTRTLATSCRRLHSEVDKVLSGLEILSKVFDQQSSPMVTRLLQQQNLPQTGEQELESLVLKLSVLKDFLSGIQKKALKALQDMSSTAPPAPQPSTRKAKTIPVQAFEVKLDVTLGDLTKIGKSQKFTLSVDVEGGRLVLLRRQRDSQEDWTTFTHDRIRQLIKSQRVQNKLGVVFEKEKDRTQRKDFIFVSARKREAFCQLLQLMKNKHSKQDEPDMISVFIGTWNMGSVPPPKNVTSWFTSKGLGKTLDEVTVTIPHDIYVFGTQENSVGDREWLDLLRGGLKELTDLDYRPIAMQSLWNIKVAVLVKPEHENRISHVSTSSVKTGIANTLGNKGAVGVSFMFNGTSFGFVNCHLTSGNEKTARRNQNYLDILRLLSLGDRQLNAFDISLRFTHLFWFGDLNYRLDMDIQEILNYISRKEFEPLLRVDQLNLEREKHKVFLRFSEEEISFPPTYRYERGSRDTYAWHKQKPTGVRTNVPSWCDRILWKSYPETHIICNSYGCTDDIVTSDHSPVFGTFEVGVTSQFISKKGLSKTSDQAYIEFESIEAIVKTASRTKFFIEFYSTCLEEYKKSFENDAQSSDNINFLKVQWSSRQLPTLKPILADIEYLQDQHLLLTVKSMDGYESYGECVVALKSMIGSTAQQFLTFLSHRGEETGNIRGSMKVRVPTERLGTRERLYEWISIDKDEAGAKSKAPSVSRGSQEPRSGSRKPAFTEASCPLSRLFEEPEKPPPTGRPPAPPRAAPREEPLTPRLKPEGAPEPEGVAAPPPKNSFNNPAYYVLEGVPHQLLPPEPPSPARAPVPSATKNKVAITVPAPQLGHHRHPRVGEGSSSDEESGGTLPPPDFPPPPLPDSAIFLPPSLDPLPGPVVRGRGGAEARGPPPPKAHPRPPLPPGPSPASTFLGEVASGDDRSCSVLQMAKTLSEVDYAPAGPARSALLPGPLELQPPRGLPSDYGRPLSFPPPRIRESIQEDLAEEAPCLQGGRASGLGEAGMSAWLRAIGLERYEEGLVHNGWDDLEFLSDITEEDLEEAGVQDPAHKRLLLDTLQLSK

[3] = Metabolic stability in mouse liver microsomes assessed as parent compound remaining at 1 uM preincubated for 5 mins followed by NADPH addition measured after 30 mins by LC-MS/MS analysis; format: ADME, microsome; conditions: read-out: Stability
[4] = Metabolic stability in rat liver microsomes assessed as parent compound remaining at 1 uM preincubated for 5 mins followed by NADPH addition measured after 30 mins by LC-MS/MS analysis; format: ADME, microsome; conditions: read-out: Stability
[5] = Metabolic stability in human liver microsomes assessed as parent compound remaining at 1 uM preincubated for 5 mins followed by NADPH addition measured after 30 mins by LC-MS/MS analysis; format: ADME, microsome; conditions: read-out: Stability
HT-22 = test: Cytotoxicity against mouse HT22 cells assessed as decrease in cell viability at 10 uM after 24 hrs by MTT assay; format: cell-based; conditions: ht-22, 24 h
CYP3A4 = CYP3A4 (Homo sapiens, UniProt P08684); test: Inhibition of recombinant human CYP3A4 assessed as remaining enzyme activity at 10 uM preincubated for 5 mins followed by NADPH addition measured after 20 mins by fluorescence assay relative to control; format: ADME; conditions: read-out: Activity
CYP3A4, sequence (P08684 whole entry): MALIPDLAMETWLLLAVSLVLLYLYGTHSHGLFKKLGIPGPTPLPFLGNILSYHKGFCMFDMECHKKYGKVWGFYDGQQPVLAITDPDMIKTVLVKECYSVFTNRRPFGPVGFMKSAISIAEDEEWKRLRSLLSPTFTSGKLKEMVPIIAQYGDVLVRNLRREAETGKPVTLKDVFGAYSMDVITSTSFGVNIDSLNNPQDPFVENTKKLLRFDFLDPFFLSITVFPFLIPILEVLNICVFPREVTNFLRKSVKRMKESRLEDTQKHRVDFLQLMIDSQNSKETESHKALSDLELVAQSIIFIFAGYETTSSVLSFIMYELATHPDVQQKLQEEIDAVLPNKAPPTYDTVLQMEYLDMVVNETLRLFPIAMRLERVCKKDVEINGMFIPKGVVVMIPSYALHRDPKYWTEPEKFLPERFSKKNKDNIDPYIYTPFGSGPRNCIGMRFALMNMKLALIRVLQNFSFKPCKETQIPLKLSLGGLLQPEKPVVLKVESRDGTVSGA

CYP2D6, sequence (P10635 whole entry): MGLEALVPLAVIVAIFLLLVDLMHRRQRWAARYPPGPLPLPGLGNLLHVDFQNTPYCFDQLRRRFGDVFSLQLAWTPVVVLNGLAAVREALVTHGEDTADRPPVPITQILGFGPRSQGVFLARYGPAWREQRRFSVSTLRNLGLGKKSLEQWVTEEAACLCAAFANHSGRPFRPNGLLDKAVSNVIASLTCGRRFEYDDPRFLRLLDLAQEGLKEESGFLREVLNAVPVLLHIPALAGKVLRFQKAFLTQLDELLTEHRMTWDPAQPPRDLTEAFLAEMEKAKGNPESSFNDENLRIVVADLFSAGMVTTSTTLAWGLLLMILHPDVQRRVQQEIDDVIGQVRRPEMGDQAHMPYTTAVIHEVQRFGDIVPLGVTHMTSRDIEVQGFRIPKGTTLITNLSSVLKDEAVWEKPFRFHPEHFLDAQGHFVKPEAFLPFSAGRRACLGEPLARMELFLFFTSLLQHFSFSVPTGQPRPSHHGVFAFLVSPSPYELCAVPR
CYP2C9, sequence (P11712 whole entry): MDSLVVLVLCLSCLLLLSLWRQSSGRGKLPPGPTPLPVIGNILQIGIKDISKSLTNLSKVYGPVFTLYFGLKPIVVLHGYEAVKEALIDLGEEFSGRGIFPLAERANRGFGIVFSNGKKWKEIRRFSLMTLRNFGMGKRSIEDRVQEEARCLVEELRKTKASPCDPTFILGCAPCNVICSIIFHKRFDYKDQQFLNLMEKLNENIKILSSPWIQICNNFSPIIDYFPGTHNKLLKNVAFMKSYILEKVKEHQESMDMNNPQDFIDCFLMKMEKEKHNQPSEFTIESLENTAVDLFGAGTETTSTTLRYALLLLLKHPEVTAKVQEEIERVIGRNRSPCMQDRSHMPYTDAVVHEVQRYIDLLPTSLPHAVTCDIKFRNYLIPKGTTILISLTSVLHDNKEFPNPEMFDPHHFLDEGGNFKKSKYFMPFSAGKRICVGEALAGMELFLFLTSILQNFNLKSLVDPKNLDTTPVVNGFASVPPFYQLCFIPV

| remaining at 0.5 h, 1 µM [1] [%] | activity at 20 min, 10 µM (CYP2D6) [%] | activity at 20 min, 10 µM (CYP1A2) [%] | activity at 20 min, 10 µM (CYP2C9) [%] | Activity [2] [%] | remaining at 0.5 h, 1 µM [3] [%] | remaining at 0.5 h, 1 µM [4] [%] | remaining at 0.5 h, 1 µM [5] [%] | activity at 20 min, 10 µM (CYP3A4) [%] | SMILES | Activity (HT-22) |
| --- | --- | --- | --- | --- | --- | --- | --- | --- | --- | --- |
| 5.7 | 82.7 | 74.3 | 10.9 | 17.1 | 6.4 | 28.3 | 44.1 | 20.2 | O=C(NCc1c(F)cccc1F)c1sccc1OCc1ccc(Cl)cc1Cl | Toxic |
| 24.3 | 93.1 | 77.6 | 97.2 | 19.9 | 38.8 | 64.3 | 74.5 | 96.7 | N#Cc1ccc(-c2cncc(OCc3ccc(Cl)cc3Cl)c2)s1 | Non-Toxic |
| 23.1 | 94.4 | 59 | 66.7 | 20.2 | 46.5 | 56.4 | 77 | 80.2 | C[C@@H](Oc1cncc(-c2cnc(N)nc2)c1)c1c(Cl)ccc(F)c1Cl | Non-Toxic |
